In patent US9757408B2 (Hayashibara Co., Ltd., priority 2010, dated 2017):
Marks after values point to notes of the source that are not given here.

Experiments:
[1] = tested on: mice with concanavalin A (Con A) induced liver disorder; assay: Concanavalin A induced liver disorder mice: GPT, GOT, liver necrosis score (Experiment 12); format: in vivo, BALB/c mice; parameters: Liver function GPT / Liver function GOT: unit not given here; details: Con A 15 mg/kg i.v.; for Liver function GOT / Liver function GPT: serum 20 hours after Con A; for Conditions of liver tissue, Necrosis (average score): grades mild (1), moderate (2), severe (3)
Procedure: “TYPE IV”, a Con A specimen commercialized by Sigma-Aldrich Corporation, St. Louis, Mo. USA, was dissolved in physiological saline and intravenously administered to all the five mice in each six groups at a dose of 15 mg/0.2 mL. […] The five mice in the remaining one group as a control were intravenously administered with 0.2 mL/head of physiological saline, simultaneously with Con A (Experiment group 1).
For the mice in each group, they were collected blood at 20 hours after administering Con A, followed by assaying the activity of GPT and GOT in their sera with “TRANSAMINASE CII-TEST WAKO”, a commercialized assay kit produced by Wako Pure Chemical Industries Ltd., Tokyo, Japan, for use as an index for liver disorder due to hepatitis. […] The tissue specimens were stained with hematoxylin-eosin staining, followed by calculating an average of scores for judgement on the conditions of necrosis of liver tissues by microscopic observation, for use as an index for liver disorder. The results are in Table 12 in parallel. The conditions of necrosis of liver tissues were evaluated based on a microscopic observation standard of three grades of “mild (1)”, “moderate (2)”, and “severe (3)” and scored before determining the average for each group.

NHEK cells = assay: Proliferation of NHEK cells irradiated with ultraviolet rays, fluorescent intensity (Experiment 17); format: cell-based, human; details: stimulation by ultraviolet rays
Procedure: (§1) “CELLMATRIX TYPE IV”, a product name of collagen for tissue culture commercialized by Nitta Gelatin Inc., Osaka, Japan, which had been diluted with PBS(K-) by 10 times, was previously placed in “FALCON 35-3001”, a product name of 35 mm petri dish commercialized by Becton Dickinson and Company, NJ, USA, in an amount of 1 mL/plate, and then allowed to stand at ambient temperature for 10 min, followed by removing an excessive amount of CELLMATRIX, drying the petri dish in air, and washing it thrice with PBS(K-). […] The cells were cultured at 37° C. in a 5% v/v CO2 incubator. On the 2nd and 4th days after the cell inoculation, the medium was replaced with EpiLife medium free of EDGS (1 mL/plate). On the 5th day after the cell inoculation, the supernatant was removed, and the petri dish was washed twice by adding 1 mL/petri dish of Hanks' balanced salt solution (called “HBSS (−) buffer”, hereinafter). Further, 2 mL/petri dish of HBSS (−) buffer was added to the petri dish which was then placed in the position 15 cm apart from an ultraviolet ray light source and irradiated with 40 mJ/cm^2 of ultraviolet B radiation. […] As an ultraviolet ray light source, “NS-8F”, a light source for actual use commercialized by Sanwa Medical Co., Ltd., Okayama, Japan, equipped with an ultraviolet B radiation lamp was used, and the radiation dose was measured on “UVR-305/365D (II)”, an ultraviolet ray meter commercialized by Topcon Corporation, Tokyo, Japan. TNF-α was assayed by the same method as in Experiment 2. The remaining other cytokines were assayed with an IL-1α assay kit, commercialized by R & D Systems Inc., MN, USA, and an IL-8 assay kit commercialized by BioLegend, CA, USA.

[2] = tested on: IL-6 production of spleen cells; assay: IL-6 production of spleen cells stimulated with anti-CD3 antibody, from gel-treated mice (Experiment 16); format: in vivo, NC/Nga mice; details: for production level of IL-6 of spleen cells stimulated with the anti-CD3 antibody: compared to mice applied with gel prepared by adding refined water (Experiment group 1); for Content of IL-6: supernatant of spleen cells stimulated with anti-CD3 antibody, picryl chloride-sensitized mice applied with gel
Procedure: (§2) On Friday of the 6th week of the induction (46th day after initiating the application), all the mice were sacrificed, followed by isolating their spleens and collecting spleen cells in usual manner. […] To each well 2 μg/mL of “Purified Mouse CD3ε Monoclonal Antibody”, a product name of an anti-CD3 antibody, commercialized by Cosmo Bio Co., Ltd., Tokyo, Japan, was added, and the cells were incubated at 37° C. for three days in a 5% v/v CO2 incubator, followed by assaying the levels of cytokines in each supernatant thereof.
(§3) The results are in Table 19 in parallel.

[3] = tested on: mice with bacterial shock induced by LPS; assay: LPS bacterial shock mice, survival, ANO, adenosine or inosine i.v. (Experiment 9); format: in vivo, BALB/c mice; details: LPS 18 mg/kg i.p.
Procedure: An LPS specimen derived from E. coli (055:B5), commercialized by Sigma-Aldrich Corporation, St. Louis, Mo. USA, was dissolved in PBS and intraperitoneally administered to all the seven mice in the four groups at a dose of 18 mg/kg body weight. […] Seven mice in the remaining one group were intravenously administered with PBS as a control in a volume of 0.2 mL/head (Experiment group 1). For each group, the survival number of mice was confirmed up to 7 to 43 hours after administering LPS and the survival rate (%) of mice in each group was determined.

[4] = tested on: IL-8 production from NHEK cells; assay: IL-8 production from NHEK cells irradiated with ultraviolet B (Experiment 17); format: cell-based, human; details: for IL-8: NHEK cells, stimulation by ultraviolet rays; for production of IL-8 from NHEK cells induced by ultraviolet rays: UVB 40 mJ/cm^2, supernatant at six hours
Procedure: as §1

[5] = tested on: IFN-γ production of spleen cells; assay: IFN-γ production of spleen cells stimulated with anti-CD3 antibody, from gel-treated mice (Experiment 16); format: in vivo, NC/Nga mice; details: for production level of IFN-γ of spleen cells stimulated with the anti-CD3 antibody: compared to mice applied with gel prepared by adding refined water (Experiment group 1); for Content of IFN-γ: supernatant of spleen cells stimulated with anti-CD3 antibody, picryl chloride-sensitized mice applied with gel
Procedure: as §2, §3

[6] = tested on: TNF-α production from mouse intraperitoneal macrophages; assay: IC50 for TNF-α production from mouse macrophages, LPS + IFN-γ, nucleic acid derivatives (Experiment 19); format: cell-based; details: for IC50: Mus musculus, Macrophage, 20 h, read-out: IC50 Concentration TNF-α
Description: After completion of the culture, the supernatant in each well was collected and assayed for cytokines and prostaglandin E2 (called “PGE2”, hereinafter) with ELISA.

## Nc1c2ncn([C@@H]3O[C@H](CO)[C@@H](O)[C@H]3O)c2nc[n+]1[O-] [ANO, adenosine N1-oxide]
[1]; 45 mg/kg i.v. simultaneously
  Liver function GOT: 2941++
  Liver function GPT: 1477*
[1]; 45 mg/kg i.v.
  Conditions of liver tissue, Necrosis (average score): 2.4
[1]; 75 mg/kg i.v. simultaneously
  Liver function GOT: 2654**
  Liver function GPT: 1229*
[1]; 135 mg/kg i.v. simultaneously
  Liver function GOT: 1343**
  Liver function GPT: 687**
[1]; 135 mg/kg i.v.
  Conditions of liver tissue, Necrosis (average score): 2.0
NHEK cells; 1 μM
  Proliferation: 5540 Fluorescent intensity
NHEK cells; 5 μM
  Proliferation: 5607 Fluorescent intensity
NHEK cells; 10 μM
  Proliferation: 5682 Fluorescent intensity
[2]
  production level of IL-6 of spleen cells stimulated with the anti-CD3 antibody: significantly lower
  Content of IL-6: 129* ng/mL
[3]; 135 mg/kg i.v. simultaneously
  Survival rate (%) of mice, 7 Hours: 100%
  Survival rate (%) of mice, 19 Hours: 80%
  Survival rate (%) of mice, 26 Hours: 80%
  Survival rate (%) of mice, 43 Hours: 80%
[4]; 1 μM
  IL-8: 107 pg/mL
[4]; 5 μM
  IL-8: 89 pg/mL
[4]; 10 μM
  IL-8: 51 pg/mL
[4]
  production of IL-8 from NHEK cells induced by ultraviolet rays: inhibited
[5]
  production level of IFN-γ of spleen cells stimulated with the anti-CD3 antibody: significantly lower
  Content of IFN-γ: 8.75* pg/mL
[6]
  IC50: 0.3 µM

## Nc1ncnc2c1ncn2[C@@H]1O[C@H](CO)[C@@H](O)[C@H]1O [AN, adenosine]
[1]; 127 mg/kg i.v. simultaneously
  Liver function GOT: 4130*
  Liver function GPT: 1917
[1]; 127 mg/kg i.v.
  Conditions of liver tissue, Necrosis (average score): 2.5
NHEK cells; 1 μM
  Proliferation: 5701 Fluorescent intensity
NHEK cells; 5 μM
  Proliferation: 5683 Fluorescent intensity
NHEK cells; 10 μM
  Proliferation: 5578 Fluorescent intensity
[2]
  production level of IL-6 of spleen cells stimulated with the anti-CD3 antibody: showed no difference
  Content of IL-6: 192 ng/mL
[3]; 127 mg/kg i.v. simultaneously
  Survival rate (%) of mice, 7 Hours: 100%
  Survival rate (%) of mice, 19 Hours: 20%
  Survival rate (%) of mice, 26 Hours: 0%
  Survival rate (%) of mice, 43 Hours: 0%
[4]; 1 μM
  IL-8: 177 pg/mL
[4]; 5 μM
  IL-8: 172 pg/mL
[4]; 10 μM
  IL-8: 175 pg/mL
[4]
  production of IL-8 from NHEK cells induced by ultraviolet rays: did not influence
[5]
  production level of IFN-γ of spleen cells stimulated with the anti-CD3 antibody: showed no difference
  Content of IFN-γ: 12.1 pg/mL
[6]
  IC50: 17.4 µM
[6]; mouse intraperitoneal macrophages stimulated with LPS and IFN-γ
  inhibitory action on the production of inflammatory cytokines (in words): only a weak inhibitory action

## OC[C@H]1O[C@@H](n2cnc3c(O)ncnc32)[C@H](O)[C@@H]1O [IN, inosine]
[1]; 127 mg/kg i.v. simultaneously
  Liver function GOT: 5243
  Liver function GPT: 2061
[1]; 127 mg/kg i.v.
  Conditions of liver tissue, Necrosis (average score): 2.6
NHEK cells; 1 μM
  Proliferation: 5643 Fluorescent intensity
NHEK cells; 5 μM
  Proliferation: 5611 Fluorescent intensity
NHEK cells; 10 μM
  Proliferation: 5633 Fluorescent intensity
[2]
  production level of IL-6 of spleen cells stimulated with the anti-CD3 antibody: showed no difference
  Content of IL-6: 150 ng/mL
[3]; 127 mg/kg i.v. simultaneously
  Survival rate (%) of mice, 7 Hours: 100%
  Survival rate (%) of mice, 19 Hours: 60%
  Survival rate (%) of mice, 26 Hours: 40%
  Survival rate (%) of mice, 43 Hours: 20%
[4]; 1 μM
  IL-8: 166 pg/mL
[4]; 5 μM
  IL-8: 169 pg/mL
[4]; 10 μM
  IL-8: 140 pg/mL
[4]
  production of IL-8 from NHEK cells induced by ultraviolet rays: did not influence
[5]
  production level of IFN-γ of spleen cells stimulated with the anti-CD3 antibody: showed no difference
  Content of IFN-γ: 13.2 pg/mL
[6]
  IC50: > 200 µM
